For series [1], the target named is glutamate recognition site of the NMDA receptor. The series is described as follows: [3H]-glutamate receptor binding assay, synaptosomal membrane from rat cortex. The conditions noted are these: for IC50: rat cortex synaptosomal membrane, read-out: affinity in [3H]-glutamate binding assay (ability to displace 50% of the radioligand). The protocol: (§1) Receptor binding experiments were performed using synaptosomal membrane from rat cortex according to means described in the literature.
(§2) Moreover, Bigge, et al., J. Med. Chem., 32 1580 (1989) discloses a [^3 H]-CCP binding assay result of 3.3 μM for the unsubstituted 5-(phosphonomethyl)-phenylalanine compound.

The target is the same in series [2]. The series is described as follows: [3H]-CGP 39653 receptor binding assay, synaptosomal membrane from rat cortex. To be noted: read-out: affinity in [3H]-CGP binding assay (ability to displace 50% of the radioligand). The protocol:
as §1, §2

In series [3] the target is T1, neutral amino acid transporter (Cricetulus griseus, UniProt G3GRU9).
T1 construct: uptake into Chinese hamster ovary (CHO) cells; endogenous in cells; host or cells: Chinese hamster ovary (CHO) cells
T1 sequence (G3GRU9 1-506): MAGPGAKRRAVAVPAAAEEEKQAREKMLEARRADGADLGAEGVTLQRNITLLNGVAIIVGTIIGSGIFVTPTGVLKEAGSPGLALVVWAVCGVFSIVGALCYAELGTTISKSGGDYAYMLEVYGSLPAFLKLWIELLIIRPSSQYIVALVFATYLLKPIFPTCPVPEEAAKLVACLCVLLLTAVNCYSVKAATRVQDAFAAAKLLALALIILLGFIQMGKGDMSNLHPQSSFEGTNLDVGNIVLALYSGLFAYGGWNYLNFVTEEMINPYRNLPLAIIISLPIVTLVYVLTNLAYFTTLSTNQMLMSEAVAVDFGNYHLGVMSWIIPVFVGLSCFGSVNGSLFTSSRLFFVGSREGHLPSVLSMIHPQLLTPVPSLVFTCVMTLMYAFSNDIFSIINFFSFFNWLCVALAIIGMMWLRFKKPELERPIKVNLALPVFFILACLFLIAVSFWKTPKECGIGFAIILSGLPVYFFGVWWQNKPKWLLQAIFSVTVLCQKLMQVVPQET
T1 sequence (A0A9J7CH39 1-533 partner): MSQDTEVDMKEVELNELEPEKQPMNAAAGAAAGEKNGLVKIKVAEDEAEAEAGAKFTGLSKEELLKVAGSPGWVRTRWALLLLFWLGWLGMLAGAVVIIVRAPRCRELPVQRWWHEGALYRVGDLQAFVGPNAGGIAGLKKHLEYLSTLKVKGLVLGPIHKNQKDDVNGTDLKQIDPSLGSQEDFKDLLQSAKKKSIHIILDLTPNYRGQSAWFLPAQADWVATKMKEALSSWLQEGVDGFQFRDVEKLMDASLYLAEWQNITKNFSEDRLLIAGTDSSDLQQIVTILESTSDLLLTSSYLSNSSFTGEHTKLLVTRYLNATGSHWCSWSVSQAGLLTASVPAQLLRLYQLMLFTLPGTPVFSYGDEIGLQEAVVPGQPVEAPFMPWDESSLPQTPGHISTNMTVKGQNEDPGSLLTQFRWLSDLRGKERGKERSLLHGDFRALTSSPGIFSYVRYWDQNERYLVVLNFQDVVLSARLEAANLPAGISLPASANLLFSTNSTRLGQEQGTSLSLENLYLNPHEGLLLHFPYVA
The series can be described thus: Competition with [3H]-L-phenylalanine for uptake into CHO cells. The conditions noted are these: 20 μM [3H]-L-phenylalanine. The format is cell-based, Chinese hamster. The method, then: Transport capacity was determined by measuring the ability of these compounds to compete with L-phenylalanine for uptake into Chinese hamster ovary (CHO) cells. All transport studies were performed in the presence of 20 μM [^3 H]-L-phenylalanine and a varying amount of the inventive compound. The capacity of the compound for transport was evaluated by its ability to reduce the transport of phenylalanine. The compounds were determined to be either substrates or not substrates of the neutral amino acid transporter,and have KM values of between 20 and 500 μM.

Series [4] has as its system electroshock induced convulsions. The series can be described thus: Electroshock induced convulsions in the mouse. It is filed as in vivo.
The next series has as its target NMDA receptor. To be noted: read-out: [3H]-CCP binding assay result; cited from earlier work.

Consider `NC(Cc1cc(CP(=O)(O)O)cc(-c2ccccc2)c1)C(=O)O` (single isomer, unassigned) [(+)-α-amino-3-(5-phosphonomethyl-[1,1'-biphenyl]-3-yl)propanoic acid, reference compound], for which the IC50 in series [1] worked out at 115 nM; in series [2], 98 nM.

For `N[C@@H](Cc1cc(CP(=O)(O)O)cc(-c2cccc3ccccc23)c1)C(=O)O` [3-(1-Naphthalenyl)-5-(phosphonomethyl)-L-phenylalanine], the “improvement in potency, as measured by binding assays, over prior art NMDA receptor antagonists” value in series [1] ([3H]-glutamate and [3H]-CGP binding, comparison with prior art compounds) was “at least a ten to thirty fold, and up to a several hundred fold improvement in potency”. Also, the IC50 in series [1] came out at 4 nM; in series [2], 8 nM. Besides, the “inhibition of phenylalanine transport” value in series [3] was “inhibited phenylalanine transport in CHO cells”. Also, the ED50 – broadly, the midpoint of the dose-response relation – in series [4] (iv, 50 mA 200 ms corneal shock, read-out: ED50, inhibition of hindlimb extension) is less than 1 mg/kg. The “anticonvulsant activity after oral administration” value in series [4] (oral) is recorded as “demonstrates activity after oral administration with an extended duration of action”.

For `N[C@@H](Cc1cccc(CP(=O)(O)O)c1)C(=O)O` [5-(phosphonomethyl)-phenylalanine], the IC50 at NMDA receptor was 3300 nM.
